Like-named read-outs stand apart in the source and are kept apart here. Starred links: 1 amine or outer side, 2 acyl side, 3 side chain; linkers in the order of their positions; H or OH if unused. Non-standard residues stand in square brackets, D forms with d. Residues, ends and D or L forms follow the SMILES beside them. *: point of attachment. DOTAGA = O=C(O)CN1CCN(CC(=O)O)CCN(C(CCC(=O)*)C(=O)O)CCN(CC(=O)O)CC1; X2 = O=C(O)CN1CCN(CC(=O)O)CCN([C@H](CCC(=O)*)C(=O)O)CCN(CC(=O)O)CC1; Benzoyl(4-SiFtBu2) = CC(C)(C)[Si](F)(c1ccc(C(=O)*)cc1)C(C)(C)C; d(γGlu) = O=C(O)[C@@H](CCC(=O)[*:2])N[*:1]; Nle = CCCC[C@H](N)C(=O)O; dDap = NC[C@@H](N)C(=O)O
Columns and labels:
CCK-2R = target: T1, CCK-2R (Rattus norvegicus, UniProt P30553); assay: Determination of IC50: CCK-2R affinity on AR4-2J cells, competition with [^177Lu]Lu-DOTA-PP-F11N; assay type: binding
T1 construct: The CCK-2R expressing rat pancreatic tumor cells AR4-2J; host or cells: AR4-2J rat pancreatic tumor cells
T1 sequence (P30553 1-452): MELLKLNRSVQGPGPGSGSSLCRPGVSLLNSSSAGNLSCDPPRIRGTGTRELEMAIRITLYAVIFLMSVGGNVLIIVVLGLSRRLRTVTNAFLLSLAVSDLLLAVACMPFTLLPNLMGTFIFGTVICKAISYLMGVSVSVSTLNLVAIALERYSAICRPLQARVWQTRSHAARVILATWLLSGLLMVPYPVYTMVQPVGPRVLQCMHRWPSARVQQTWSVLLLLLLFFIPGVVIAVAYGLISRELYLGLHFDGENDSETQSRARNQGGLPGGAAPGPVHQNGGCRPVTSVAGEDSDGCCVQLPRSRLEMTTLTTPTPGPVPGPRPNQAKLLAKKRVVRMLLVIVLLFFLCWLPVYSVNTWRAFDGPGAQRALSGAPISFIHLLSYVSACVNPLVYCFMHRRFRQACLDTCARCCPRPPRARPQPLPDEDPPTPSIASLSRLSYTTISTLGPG
Outline: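 Competitive displacement of 0.3 pmol/well [177Lu]Lu-DOTA-PP-F11N by compounds (10^-10 to 10^-4 M) on AR4-2J cells in BSA-supplemented medium, 3 h at 37 °C. Free label was collected from medium plus PBS rinse, and cell-bound label was recovered with 1 M NaOH, both measured by γ-counter. Each IC50 was determined twice, in triplicate.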

[1] = n-Octanol-PBS distribution coefficient (logD7.4); assay type: physicochemical; conditions: pH = 7.4, ^177Lu-labeled
Description: Approximately 1 MBq of the labeled tracer was dissolved in 1 mL of a 1/1 mixture (v/v) of phosphate buffered saline (PBS, pH = 7.4) and n-octanol in an Eppendorf tube (1.5 mL). After vigorous mixing of the suspension for 3 min at rt, the vial was centrifuged at 9,000 rpm for 5 min (Biofuge 15, Heraeus Sepatech, Osterode, Germany) and 200 µL aliquots of both layers were measured in a γ-counter. The experiment was repeated at least five times.

[2] = read-out: IC50 [nM] (n = 3), ^natLu-labeled; AR4-2J cells; ^natLu-labeled
[3] = AR4-2J cells; ^natLu-labeled; read-out: IC50 [nM] (n = 3), ^natLu-labeled

Compound | IC50 (CCK-2R; [2]) | logD7.4 (n ≥ 5), ^177Lu-labeled [1] | IC50 (CCK-2R; [3])
CCCC[C@H](NC(=O)[C@H](Cc1c[nH]c2ccccc12)NC(=O)CNC(=O)[C@H](Cc1ccc(O)cc1)NC(=O)[C@H](C)NC(=O)[C@@H](CCC(=O)O)NC(=O)[C@@H](CCC(=O)O)NC(=O)[C@@H](CCC(=O)O)NC(=O)[C@@H](CCC(=O)O)NC(=O)[C@@H](CCC(=O)O)NC(=O)[C@@H](CNC(=O)c1ccc([Si](F)(C(C)(C)C)C(C)(C)C)cc1)NC(=O)[C@@H](CCC(=O)O)NC(=O)CCC(C(=O)O)N1CCN(CC(=O)O)CCN(CC(=O)O)CCN(CC(=O)O)CC1)C(=O)N[C@@H](CC(=O)O)C(=O)N[C@@H](Cc1ccccc1)C(N)=O (some centres unmarked) [DOTAGA-MG-SiFA-10, DOTAGA-glu-[dap(SiFA)^1]F11N] ({DOTAGA}-[dE][dDap](Benzoyl(4-SiFtBu2))[dE][dE][dE][dE][dE]AYGW[Nle]DF-NH2) | 56.8 ± 6.4 nM | −2.22 ± 0.08 | 
CCCC[C@H](NC(=O)[C@H](Cc1c[nH]c2ccccc12)NC(=O)CNC(=O)[C@H](Cc1ccc(O)cc1)NC(=O)[C@H](C)NC(=O)[C@@H](CCC(=O)O)NC(=O)[C@@H](CCC(=O)O)NC(=O)[C@@H](CCC(=O)O)NC(=O)[C@@H](CCC(=O)O)NC(=O)[C@@H](CCC(=O)O)NC(=O)[C@@H](CCC(=O)O)NC(=O)[C@@H](CNC(=O)c1ccc([Si](F)(C(C)(C)C)C(C)(C)C)cc1)NC(=O)CCC(C(=O)O)N1CCN(CC(=O)O)CCN(CC(=O)O)CCN(CC(=O)O)CC1)C(=O)N[C@@H](CC(=O)O)C(=O)N[C@@H](Cc1ccccc1)C(N)=O (some centres unmarked) [DOTAGA-MG-SiFA-11, DOTAGA-dap(SiFA)-F11N] ({DOTAGA}-[dDap](Benzoyl(4-SiFtBu2))[dE][dE][dE][dE][dE][dE]AYGW[Nle]DF-NH2) | 75.7 ± 10.7 nM | −2.63 ± 0.08 | 
CCCC[C@H](NC(=O)[C@H](Cc1c[nH]c2ccccc12)NC(=O)CNC(=O)[C@H](Cc1ccc(O)cc1)NC(=O)[C@H](C)NC(=O)[C@@H](CNC(=O)c1ccc([Si](F)(C(C)(C)C)C(C)(C)C)cc1)NC(=O)CC[C@@H](NC(=O)CC[C@@H](NC(=O)CC[C@@H](NC(=O)CC[C@@H](NC(=O)CC[C@@H](NC(=O)CC[C@@H](NC(=O)CC[C@H](C(=O)O)N1CCN(CC(=O)O)CCN(CC(=O)O)CCN(CC(=O)O)CC1)C(=O)O)C(=O)O)C(=O)O)C(=O)O)C(=O)O)C(=O)O)C(=O)N[C@@H](CC(=O)O)C(=O)N[C@@H](Cc1ccccc1)C(N)=O [DOTAGA-MG-SiFA-13, DOTAGA-γ-glu-[dap(SiFA)^6]γ-F11N] ({X2-d(γGlu)-d(γGlu)-d(γGlu)-d(γGlu)-d(γGlu)-d(γGlu)}-[dDap](Benzoyl(4-SiFtBu2))AYGW[Nle]DF-NH2) |  | −2.15 ± 0.08 | 863 ± 147 nM
CCCC[C@H](NC(=O)[C@H](Cc1c[nH]c2ccccc12)NC(=O)CNC(=O)[C@H](Cc1ccc(O)cc1)NC(=O)[C@H](C)NC(=O)CC[C@@H](NC(=O)[C@@H](CNC(=O)c1ccc([Si](F)(C(C)(C)C)C(C)(C)C)cc1)NC(=O)CC[C@@H](NC(=O)CC[C@@H](NC(=O)CC[C@@H](NC(=O)CC[C@@H](NC(=O)CC[C@@H](NC(=O)CC[C@H](C(=O)O)N1CCN(CC(=O)O)CCN(CC(=O)O)CCN(CC(=O)O)CC1)C(=O)O)C(=O)O)C(=O)O)C(=O)O)C(=O)O)C(=O)O)C(=O)N[C@@H](CC(=O)O)C(=O)N[C@@H](Cc1ccccc1)C(N)=O [DOTAGA-MG-SiFA-14, DOTAGA-γ-glu-[dap(SiFA)^5]γ-F11N] ({X2-d(γGlu)-d(γGlu)-d(γGlu)-d(γGlu)-d(γGlu)}-[dDap](Benzoyl(4-SiFtBu2))[d(γGlu)]AYGW[Nle]DF-NH2) |  | −2.23 ± 0.07 | 111 ± 13 nM
CCCC[C@H](NC(=O)[C@H](Cc1c[nH]c2ccccc12)NC(=O)CNC(=O)[C@H](Cc1ccc(O)cc1)NC(=O)[C@H](C)NC(=O)CC[C@@H](NC(=O)CC[C@@H](NC(=O)[C@@H](CNC(=O)c1ccc([Si](F)(C(C)(C)C)C(C)(C)C)cc1)NC(=O)CC[C@@H](NC(=O)CC[C@@H](NC(=O)CC[C@@H](NC(=O)CC[C@@H](NC(=O)CC[C@H](C(=O)O)N1CCN(CC(=O)O)CCN(CC(=O)O)CCN(CC(=O)O)CC1)C(=O)O)C(=O)O)C(=O)O)C(=O)O)C(=O)O)C(=O)O)C(=O)N[C@@H](CC(=O)O)C(=O)N[C@@H](Cc1ccccc1)C(N)=O [DOTAGA-MG-SiFA-15, DOTAGA-γ-glu-[dap(SiFA)^4]γ-F11N] ({X2-d(γGlu)-d(γGlu)-d(γGlu)-d(γGlu)}-[dDap](Benzoyl(4-SiFtBu2))[d(γGlu)][d(γGlu)]AYGW[Nle]DF-NH2) |  | −2.34 ± 0.05 | 89.7 ± 14.5 nM
CCCC[C@H](NC(=O)[C@H](Cc1c[nH]c2ccccc12)NC(=O)CNC(=O)[C@H](Cc1ccc(O)cc1)NC(=O)[C@H](C)NC(=O)CC[C@@H](NC(=O)CC[C@@H](NC(=O)CC[C@@H](NC(=O)[C@@H](CNC(=O)c1ccc([Si](F)(C(C)(C)C)C(C)(C)C)cc1)NC(=O)CC[C@@H](NC(=O)CC[C@@H](NC(=O)CC[C@@H](NC(=O)CC[C@H](C(=O)O)N1CCN(CC(=O)O)CCN(CC(=O)O)CCN(CC(=O)O)CC1)C(=O)O)C(=O)O)C(=O)O)C(=O)O)C(=O)O)C(=O)O)C(=O)N[C@@H](CC(=O)O)C(=O)N[C@@H](Cc1ccccc1)C(N)=O [DOTAGA-MG-SiFA-16, DOTAGA-γ-glu-[dap(SiFA)^3]γ-F11N] ({X2-d(γGlu)-d(γGlu)-d(γGlu)}-[dDap](Benzoyl(4-SiFtBu2))[d(γGlu)][d(γGlu)][d(γGlu)]AYGW[Nle]DF-NH2) |  | −2.57 ± 0.06 | 68.5 ± 11.4 nM
CCCC[C@H](NC(=O)[C@H](Cc1c[nH]c2ccccc12)NC(=O)CNC(=O)[C@H](Cc1ccc(O)cc1)NC(=O)[C@H](C)NC(=O)CC[C@@H](NC(=O)CC[C@@H](NC(=O)CC[C@@H](NC(=O)CC[C@@H](NC(=O)[C@@H](CNC(=O)c1ccc([Si](F)(C(C)(C)C)C(C)(C)C)cc1)NC(=O)CC[C@@H](NC(=O)CC[C@@H](NC(=O)CCC(C(=O)O)N1CCN(CC(=O)O)CCN(CC(=O)O)CCN(CC(=O)O)CC1)C(=O)O)C(=O)O)C(=O)O)C(=O)O)C(=O)O)C(=O)O)C(=O)N[C@@H](CC(=O)O)C(=O)N[C@@H](Cc1ccccc1)C(N)=O (some centres unmarked) [DOTAGA-MG-SiFA-17, DOTAGA-γ-glu-[dap(SiFA)^2]γ-F11N] ({DOTAGA-d(γGlu)-d(γGlu)}-[dDap](Benzoyl(4-SiFtBu2))[d(γGlu)][d(γGlu)][d(γGlu)][d(γGlu)]AYGW[Nle]DF-NH2) | 51.3 ± 9.3 nM | −2.26 ± 0.05 | 
CCCC[C@H](NC(=O)[C@H](Cc1c[nH]c2ccccc12)NC(=O)CNC(=O)[C@H](Cc1ccc(O)cc1)NC(=O)[C@H](C)NC(=O)CC[C@@H](NC(=O)CC[C@@H](NC(=O)CC[C@@H](NC(=O)CC[C@@H](NC(=O)CC[C@@H](NC(=O)[C@@H](CNC(=O)c1ccc([Si](F)(C(C)(C)C)C(C)(C)C)cc1)NC(=O)CC[C@@H](NC(=O)CCC(C(=O)O)N1CCN(CC(=O)O)CCN(CC(=O)O)CCN(CC(=O)O)CC1)C(=O)O)C(=O)O)C(=O)O)C(=O)O)C(=O)O)C(=O)O)C(=O)N[C@@H](CC(=O)O)C(=O)N[C@@H](Cc1ccccc1)C(N)=O (some centres unmarked) [DOTAGA-MG-SiFA-18, DOTAGA-γ-glu-[dap(SiFA)^1]γ-F11N] ({DOTAGA-d(γGlu)}-[dDap](Benzoyl(4-SiFtBu2))[d(γGlu)][d(γGlu)][d(γGlu)][d(γGlu)][d(γGlu)]AYGW[Nle]DF-NH2) | 33 ± 11.1 nM | −2.50 ± 0.02 | 
CCCC[C@H](NC(=O)[C@H](Cc1c[nH]c2ccccc12)NC(=O)CNC(=O)[C@H](Cc1ccc(O)cc1)NC(=O)[C@H](C)NC(=O)[C@@H](CCC(=O)O)NC(=O)[C@@H](CCC(=O)O)NC(=O)[C@@H](CCC(=O)O)NC(=O)[C@@H](CCC(=O)O)NC(=O)[C@@H](CCC(=O)O)NC(=O)[C@@H](CCC(=O)O)NC(=O)[C@@H](CCC(=O)O)NC(=O)[C@@H](CNC(=O)c1ccc([Si](F)(C(C)(C)C)C(C)(C)C)cc1)NC(=O)CCC(C(=O)O)N1CCN(CC(=O)O)CCN(CC(=O)O)CCN(CC(=O)O)CC1)C(=O)N[C@@H](CC(=O)O)C(=O)N[C@@H](Cc1ccccc1)C(N)=O (some centres unmarked) [DOTAGA-MG-SiFA-20, DOTAGA-dap(SiFA)-glu-F11N] ({DOTAGA}-[dDap](Benzoyl(4-SiFtBu2))[dE][dE][dE][dE][dE][dE][dE]AYGW[Nle]DF-NH2) | 58 ± 11 nM | −2.19 ± 0.08 | 
CCCC[C@H](NC(=O)[C@H](Cc1c[nH]c2ccccc12)NC(=O)CNC(=O)[C@H](Cc1ccc(O)cc1)NC(=O)[C@H](C)NC(=O)[C@@H](CCC(=O)O)NC(=O)[C@@H](CCC(=O)O)NC(=O)[C@@H](CCC(=O)O)NC(=O)[C@@H](CCC(=O)O)NC(=O)[C@@H](CCC(=O)O)NC(=O)[C@@H](CCC(=O)O)NC(=O)[C@@H](CCC(=O)O)NC(=O)[C@@H](CCC(=O)O)NC(=O)[C@@H](CNC(=O)c1ccc([Si](F)(C(C)(C)C)C(C)(C)C)cc1)NC(=O)CCC(C(=O)O)N1CCN(CC(=O)O)CCN(CC(=O)O)CCN(CC(=O)O)CC1)C(=O)N[C@@H](CC(=O)O)C(=O)N[C@@H](Cc1ccccc1)C(N)=O (some centres unmarked) [DOTAGA-MG-SiFA-21, DOTAGA-dap(SiFA)-(glu)2-F11N] ({DOTAGA}-[dDap](Benzoyl(4-SiFtBu2))[dE][dE][dE][dE][dE][dE][dE][dE]AYGW[Nle]DF-NH2) | 55.3 ± 7.8 nM | −2.84 ± 0.04 | 
